Measured values from patent US11406594B2, “Oleogel compositions for retinal drug delivery” (University of Florida Research Foundation, Inc., priority 2017, dated 2022).
Structures can show the parent of a compound that is named as a salt. Where two headings read alike, the source gives them in different places.

Columns and labels:
[1] = Solubility limit of drug in PBS; settings: 25 °C, aqueous buffer
Source text: (§1) A significant parameter for the behavior of the disclosed drug delivery compositions is drug solubility in an aqueous environment and in hydrophobic environment, such as the soybean oil used in the examples described herein. Without wishing to be bound by a particular theory, it is possible that diffusion of the drug in the external medium (PBS) is a rate limiting step. Accordingly, solubility of the drug in this phase is crucial for modeling calculations of drug release. Solubility in the oil phase was estimated by preparing drug delivery compositions with different concentrations of drug, and observing the samples under a microscope.

[2] = Solubility limit of drug in oil phase of drug delivery composition (microscopy for visible drug particles)
Source text: as §1

[3] = apparent wt %, soybean oil phase, estimated from visible drug particles

Row | solubility ([1]; PBS) | Solubility Limit in Oil Phase of Drug Delivery Composition [2] | Solubility Limit in Oil Phase of Drug Delivery Composition [2, 3] | Compound | solubility [1]
1 | > 89 µg/mL | <0.1% |  | C[C@@H]1C[C@H]2[C@@H]3CCC4=CC(=O)C=C[C@]4(C)[C@@]3(F)[C@@H](O)C[C@]2(C)[C@@]1(O)C(=O)COP(=O)(O)O [Dexamethasone Phosphate] | 
2 |  |  | 1%-3% | C[C@@H]1C[C@H]2[C@@H]3CCC4=CC(=O)C=C[C@]4(C)[C@@]3(F)[C@@H](O)C[C@]2(C)[C@@]1(O)C(=O)CO [Dexamethasone] | 
3 | > 89 µg/mL |  | 0.1%-1% | CC(C)(C)NC[C@H](O)COc1nsnc1N1CCOCC1 [Timolol Maleate] | 
4 |  |  |  | CN[C@H](CC(C)C)C(=O)N[C@H]1C(=O)N[C@@H](CC(N)=O)C(=O)N[C@H]2C(=O)N[C@H]3C(=O)N[C@H](C(=O)N[C@H](C(=O)O)c4cc(O)cc(O)c4-c4cc3ccc4O)[C@H](O)c3ccc(c(Cl)c3)Oc3cc2cc(c3O[C@@H]2O[C@H](CO)[C@@H](O)[C@H](O)[C@H]2O[C@H]2C[C@](C)(N)[C@H](O)[C@H](C)O2)Oc2ccc(cc2Cl)[C@H]1O [Vancomycin Hydrochloride] | > 89 µg/mL
